Measurements published in US20250351832A1, “PHYTOCHEMICALS AS BIOPESTICIDES AND BIOSTIMULANTS” (KAY BEE BIO ORGANICS PVT. LTD., priority 2024, published 2025).
Where two headings read alike, the source gives them in different places.

Assays:
[1] = test system: Pomegranate Bacterial Leaf Blight (BLB-Xanthomonas axonopodis pv Punicae); assay: Field trial, pomegranate bacterial leaf blight (Ex. 99); conditions: for % Increase in yield over control / Yield: pomegranate
[2] = test system: Cotton Bacterial Leaf Blight (BLB-Xanthomonas citri pv. Malvacearum); assay: Field trial, cotton bacterial leaf blight, Embodiment 12 (Ex. 116); conditions: for % Increase over control: cotton yield; for % Disease reduction over Control / Yield: cotton
[3] = test system: Citrus Canker (Xanthomonas citri pv. Citri); assay: Field trial, citrus canker (Ex. 117); conditions: for % Increase in yield over control / Yield (t/ha): citrus; for Citrus Canker severity, Pre spray: pre spray (baseline)
[4] = test system: Aphid; assay: whole plant or invertebrate; conditions: 48 h
[5] = test system: Spodoptera litura; conditions: Spodoptera litura 3rd instar on cabbage plants, dose 1 ml/gm/lit. spray
[6] = test system: Thrips
[7] = test system: Spodoptera litura; assay: whole plant or invertebrate; conditions: 72 h
[8] = test system: Mite; conditions: mite on okra plants, green house, dose 1 ml/gm/lit. spray
[9] = test system: tomato seedlings; assay: Response of tomato plants, greenhouse growth (Ex. 30); format: in vivo
[10] = test system: Thrips; assay: whole plant or invertebrate; conditions: in Gossypium hirsutum, 48 h
[11] = test system: Thrips; conditions: 48 h, 1 mL or g/L
[12] = test system: Helicoverpa armigera; conditions: Helicoverpa armigera on okra fruits, dose 1 ml/gm/lit., 72 Hrs.
[13] = test system: Aphid
[14] = test system: Mite; conditions: Dose 1 ml/gm/lit.; 48 hrs
[15] = test system: Helicoverpa armigera; conditions: Helicoverpa armigera 3rd instar on chickpea plants, dose 1 ml/gm/lit. spray
[16] = cited from earlier work
[17] = test system: Spodoptera litura; conditions: 72 h, 1 mL or g/L
[18] = test system: chili seedlings; assay: Response of chili plants, greenhouse growth (Ex. 31); format: in vivo
[19] = test system: Mealy Bug; conditions: Mealy Bug on cotton leaves, dose 1 ml/gm/lit., 48 Hrs.
[20] = test system: Alternaria alternata; assay: In vitro poisoned food technique against fungus (Ex. 20); format: cell-based; conditions: […]
[21] = test system: Mealy Bug; conditions: mealy bug on cotton plants, green house, dose 1 ml/gm/lit. spray
[22] = test system: Aphid; conditions: 48 h, 1 mL or g/L
[23] = read-out: % Corrected Mortality at 48 Hrs.
[24] = read-out: % Mortality at 48 Hrs.
[25] = 72 hrs, corrected for water control
[26] = 48 hrs, corrected for water control
[27] = tomato seedlings, 10th day, dose 1 ml/gm/lit
[28] = tomato seedlings, dose 1 ml/gm/lit, 10th day
[29] = Table 13, descriptive, no test described
[30] = chili seedlings, dose 1 ml/gm/lit, 10th day

Compound: O=[N+]([O-])C(Br)(CO)CO [Bronopol]
- % Disease reduction over Control ([1]; dose 500 ppm): 66.68%
- BLB severity 1st spray 3rd Day ([1]; dose 500 ppm): 36.68
- BLB severity 1st spray 5th day ([1]; dose 500 ppm): 32.15
- BLB severity 2nd spray 3rd Day ([1]; dose 500 ppm): 28.75
- BLB severity 2nd spray 5th Day ([1]; dose 500 ppm): 26.65
- % Increase in yield over control ([1]; dose 500 ppm): 10.36%
- Yield ([1]; dose 500 ppm): 10.55 t/ha
- cotton BLB severity ([2]; 1st spray, 5th Day, dose 500 ppm): 31.33
- cotton BLB severity ([2]; 1st spray, 10th Day, dose 500 ppm): 27.10
- cotton BLB severity ([2]; 2nd spray, 5th Day, dose 500 ppm): 25.60
- cotton BLB severity ([2]; 2nd spray, 10th Day, dose 500 ppm): 23.60
- % Increase over control ([2]; dose 500 ppm): 13.79%
- % Disease reduction over Control ([2]; dose 500 ppm): 66.38%
- Yield ([2]; dose 500 ppm): 20.30 qtl/ha
- % Disease reduction over Control ([3]; dose 500 ppm): 72.62%
- Citrus Canker severity, 1st spray 5rd Day ([3]; dose 500 ppm): 38.48
- Citrus Canker severity, 1st spray 10th day ([3]; dose 500 ppm): 33.15
- Citrus Canker severity, 2nd spray 5rd day ([3]; dose 500 ppm): 27.45
- Citrus Canker severity, 2nd spray 10th Day ([3]; dose 500 ppm): 22.45
- % Increase in yield over control ([3]; dose 500 ppm): 3.61%
- Yield (t/ha) ([3]; dose 500 ppm): 8.30 t/ha
- Citrus Canker severity, Pre spray ([3]; dose 500 ppm): 41.75

Compound: [Cu+2].[OH-].[OH-] [Copper Hydroxide]
- % Disease reduction over Control ([1]; dose 0.30%): 61.56%
- BLB severity 1st spray 3rd Day ([1]; dose 0.30%): 35.45
- BLB severity 1st spray 5th day ([1]; dose 0.30%): 33.15
- BLB severity 2nd spray 3rd Day ([1]; dose 0.30%): 31.2
- BLB severity 2nd spray 5th Day ([1]; dose 0.30%): 30.75
- % Increase in yield over control ([1]; dose 0.30%): 16.42%
- Yield ([1]; dose 0.30%): 11.13 t/ha
- cotton BLB severity ([2]; 1st spray, 5th Day, dose 0.30%): 31.00
- cotton BLB severity ([2]; 1st spray, 10th Day, dose 0.30%): 29.75
- cotton BLB severity ([2]; 2nd spray, 5th Day, dose 0.30%): 27.45
- cotton BLB severity ([2]; 2nd spray, 10th Day, dose 0.30%): 26.45
- % Increase over control ([2]; dose 0.30%): 7.89%
- % Disease reduction over Control ([2]; dose 0.30%): 62.32%
- Yield ([2]; dose 0.30%): 19.00 qtl/ha
- % Disease reduction over Control ([3]; dose 0.30%): 70.60%
- Citrus Canker severity, 1st spray 5rd Day ([3]; dose 0.30%): 37.65
- Citrus Canker severity, 1st spray 10th day ([3]; dose 0.30%): 33.15
- Citrus Canker severity, 2nd spray 5rd day ([3]; dose 0.30%): 28.10
- Citrus Canker severity, 2nd spray 10th Day ([3]; dose 0.30%): 24.10
- % Increase in yield over control ([3]; dose 0.30%): 13.98%
- Yield (t/ha) ([3]; dose 0.30%): 9.30 t/ha
- Citrus Canker severity, Pre spray ([3]; dose 0.30%): 41.45

Compound: [Cl-].[Cu+2].[Cu+2].[OH-].[OH-].[OH-] [Copper oxychloride]
- % Disease reduction over Control ([1]; dose 0.25%): 67.92%
- BLB severity 1st spray 3rd Day ([1]; dose 0.25%): 36.65
- BLB severity 1st spray 5th day ([1]; dose 0.25%): 30.15
- BLB severity 2nd spray 3rd Day ([1]; dose 0.25%): 26.14
- BLB severity 2nd spray 5th Day ([1]; dose 0.25%): 25.66
- % Increase in yield over control ([1]; dose 0.25%): 12.45%
- Yield ([1]; dose 0.25%): 10.75 t/ha
- cotton BLB severity ([2]; 1st spray, 5th Day, dose 0.25%): 30.00
- cotton BLB severity ([2]; 1st spray, 10th Day, dose 0.25%): 28.45
- cotton BLB severity ([2]; 2nd spray, 5th Day, dose 0.25%): 23.65
- cotton BLB severity ([2]; 2nd spray, 10th Day, dose 0.25%): 21.36
- % Increase over control ([2]; dose 0.25%): 5.41%
- % Disease reduction over Control ([2]; dose 0.25%): 69.57%
- Yield ([2]; dose 0.25%): 18.50 qtl/ha

Compound: CCCCC[C@H](O)CC(=O)CCc1ccc(O)c(OC)c1 [Gingerol]
- mortality at 1 mL or g/L [4, 23]: 58.8%
- mortality at 1 mL or g/L [4, 24]: 65%
- % Mortality at 72 Hrs. ([5]; 72 hrs after application): 37.50%
- % Corrected Mortality at 72 Hrs. [5, 25]: 34.21%
- Total No. of dead insect at 48 Hrs. ([6]; 48 h): 30.00
- % Mortality at 48 Hrs. ([6]; thrips on cotton plants, greenhouse, dose 1 ml/gm/lit. spray, 48 hrs after application): 30.00%
- % Corrected Mortality at 48 Hrs. ([6]; thrips on cotton plants, greenhouse, dose 1 ml/gm/lit. spray, 48 hrs, corrected for water control): 22.22%
- mortality at 1 mL or g/L ([7]; read-out: % Corrected Mortality at 72 Hrs.): 36.8%
- mortality at 1 mL or g/L ([7]; read-out: % Mortality at 72 Hrs.): 40%
- % Mortality at 48 Hrs. ([8]; 48 hrs after application): 30.00%
- % Corrected Mortality at 48 Hrs. [8, 26]: 26.32%
- CCI Pre [9]: 12.65
- Plant Height Pre [9]: 5.62 cm
- Stem Girth Pre [9]: 1.35 mm
- CCI 5th Day ([9]; 120 h): 14.63
- Plant Height 5th Day ([9]; 120 h): 6.45 cm
- Stem Girth 5th Day ([9]; 120 h): 1.92 mm
- CCI 10th Day ([9]; 240 h): 16.87
- Plant Height 10th Day ([9]; 240 h): 7.59 cm
- Root Length % Increase over control ([9]; 240 h): 31.77%
- Stem Girth 10th Day ([9]; 240 h): 2.31 mm
- Plant Height % Increase over pre on 10th Day [9, 27]: 35.05%
- Stem Girth % Increase over pre on 10th Day [9, 27]: 70.52%
- CCI % Increase over pre on 10th Day [9, 28]: 33.36%
- Root Length (cm) 10th Day [9, 28]: 4.38 cm
- mortality at 1 mL or g/L [10, 23]: 28.6%
- mortality at 1 mL or g/L [10, 24]: 37.5%
- Total No. of dead insect at 48 Hrs. [11]: 3.75
- % Mortality at 72 Hrs. [12]: 52.50%
- % Corrected Mortality at 72 Hrs. ([12]; corrected for water control): 52.50%
- Total No. of dead insect at 48 Hrs. ([13]; 48 h): 6.25
- % Corrected Mortality at 48 Hrs. ([13]; Dose 1 ml/gm/lit., 48 hrs): 57.14%
- % Mortality at 48 Hrs. ([13]; Dose 1 ml/gm/lit., 48 hrs): 62.50%
- % Corrected Mortality at 48 Hrs. [14]: 29.73%
- % Mortality at 48 Hrs. [14]: 35.00%
- % Mortality at 72 Hrs. ([15]; 72 hrs after application): 50.00%
- % Corrected Mortality at 72 Hrs. [15, 25]: 50.00%
- Antifungal Activity - Mode of action [16, 29]: More effective in restricting
- Antioxidant Activity - Mode of action [16, 29]: High antioxidant activity
- Bactericidal Activity - Mode of action [16, 29]: Antibacterial activity
- Insecticidal Activities - Mode of action [16, 29]: Exhibit repellent activity
- Nematicidal Activity - Mode of action [16, 29]: Suppressed root knot egg
- Virucidal Activity - Mode of action [16, 29]: Inhibit viral nucleic
- Phytotonic Effect ([16]; Table 13, effect on plants, descriptive): Enhanced plant
- Total No. of dead insect at 72 Hrs. [17]: 4.00
- CCI Pre [18]: 9.40
- Plant Height (cm) Pre [18]: 4.05 cm
- CCI 5th Day ([18]; 120 h): 13.02
- Plant Height (cm) 5th Day ([18]; 120 h): 5.95 cm
- CCI 10th Day ([18]; 240 h): 16
- Plant Height (cm) 10th Day ([18]; 240 h): 6.65 cm
- Root Lenght % Increase over control ([18]; 240 h): 37.61%
- CCI % Increase over pre on 10th Day [18, 30]: 70.21%
- Plant Height % Increase over pre on 10th Day [18, 30]: 64.20%
- Root Lenght (cm) 10th Day [18, 30]: 3.77 cm
- Stem Girth % Increase over pre on 10th Day [18, 30]: 45.00%
- % Mortality at 48 Hrs. [19]: 27.50%
- % Corrected Mortality at 48 Hrs. ([19]; corrected for water control): 23.68%
- inhibition of growth at 1 mL or g/L [20]: 51.7%
- % Mortality at 48 Hrs. ([21]; 48 hrs after application): 37.50%
- % Corrected Mortality at 48 Hrs. [21, 26]: 30.56%
- Total No. of dead insect at 48 Hrs. [22]: 65.00

Compound: Copper
- % Disease reduction over Control ([3]; dose 0.25%): 71.15%
- Citrus Canker severity, 1st spray 5rd Day ([3]; dose 0.25%): 39.56
- Citrus Canker severity, 1st spray 10th day ([3]; dose 0.25%): 34.15
- Citrus Canker severity, 2nd spray 5rd day ([3]; dose 0.25%): 29.65
- Citrus Canker severity, 2nd spray 10th Day ([3]; dose 0.25%): 23.65
- % Increase in yield over control ([3]; dose 0.25%): 13.04%
- Yield (t/ha) ([3]; dose 0.25%): 9.20 t/ha
- Citrus Canker severity, Pre spray ([3]; dose 0.25%): 40.52
